Source: PubChem BioAssay (NCI)
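Results reflect a 48-hour exposure of cells in 96-well plates to compound at five concentrations. GI50 marks 50% less growth. TGI is the concentration that stops growth completely.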

What was measured:
Experiment in all cases: inhibition of tumour cell growth, NCI panel, 48 h
HCT-116 colon = test system: HCT-116 colon
HS 578T breast = test system: HS 578T breast
OVCAR-3 ovarian = test system: OVCAR-3 ovarian
M14 melanoma = test system: M14 melanoma
A549 NSCLC = test system: A549 NSCLC
HCT-15 colon = test system: HCT-15 colon
LOX IMVI melanoma = test system: LOX IMVI melanoma
DU-145 prostate = test system: DU-145 prostate
HT29 colon = test system: HT29 colon
HOP-92 NSCLC = test system: HOP-92 NSCLC
K-562 leukemia = test system: K-562 leukemia
SW-620 colon = test system: SW-620 colon
UO-31 renal = test system: UO-31 renal
UACC-62 melanoma = test system: UACC-62 melanoma
PC-3 prostate = test system: PC-3 prostate
IGROV1 ovarian = test system: IGROV1 ovarian
HL-60(TB) leukemia = test system: HL-60(TB) leukemia
MDA-MB-435 = test system: MDA-MB-435
SK-MEL-2 melanoma = test system: SK-MEL-2 melanoma
SK-MEL-28 melanoma = test system: SK-MEL-28 melanoma
SF-539 CNS = test system: SF-539 CNS
786-0 renal = test system: 786-0 renal
BT-549 breast = test system: BT-549 breast
HOP-62 NSCLC = test system: HOP-62 NSCLC
SNB-19 CNS = test system: SNB-19 CNS
MALME-3M melanoma = test system: MALME-3M melanoma
A498 renal = test system: A498 renal

Compound `Cc1cn2cc(-c3ccc4c(c3)CC(=O)N4)nc2s1` has a GI50 (HCT-116 colon) of 70.1 µM, a TGI (HCT-116 colon) of over 100 µM and a GI50 (HS 578T breast) of over 100 µM. The TGI (HS 578T breast) was over 100 µM, the GI50 (OVCAR-3 ovarian) was over 100 µM and the TGI (OVCAR-3 ovarian) was over 100 µM. The GI50 (M14 melanoma) was over 100 µM, the TGI (M14 melanoma) was over 100 µM and the GI50 (A549 NSCLC) was over 100 µM. For the same compound, the TGI (A549 NSCLC) was over 100 µM, the GI50 (HCT-15 colon) was 67 µM and the TGI (HCT-15 colon) was over 100 µM. It also gave a GI50 (LOX IMVI melanoma) of 20.5 µM, a TGI (LOX IMVI melanoma) of over 100 µM and a GI50 (DU-145 prostate) of over 100 µM. It also gave a TGI (DU-145 prostate) of over 100 µM, a GI50 (HT29 colon) of 85.5 µM and a TGI (HT29 colon) of over 100 µM. The GI50 (HOP-92 NSCLC) was over 100 µM, the TGI (HOP-92 NSCLC) was over 100 µM and the GI50 (K-562 leukemia) was 61.9 µM. For the same compound, the TGI (K-562 leukemia) was over 100 µM, the GI50 (SW-620 colon) was 34 µM and the TGI (SW-620 colon) was over 100 µM. For the same compound, the GI50 (UO-31 renal) was over 100 µM, the TGI (UO-31 renal) was over 100 µM and the GI50 (UACC-62 melanoma) was 33.7 µM. It also gave a TGI (UACC-62 melanoma) of over 100 µM, a GI50 (PC-3 prostate) of over 100 µM and a TGI (PC-3 prostate) of over 100 µM. For the same compound, the GI50 (IGROV1 ovarian) was over 100 µM, the TGI (IGROV1 ovarian) was over 100 µM and the GI50 (HL-60(TB) leukemia) was over 100 µM. It also gave a TGI (HL-60(TB) leukemia) of over 100 µM, a GI50 (MDA-MB-435) of 91 µM and a TGI (MDA-MB-435) of over 100 µM. The GI50 (SK-MEL-2 melanoma) was over 100 µM, the TGI (SK-MEL-2 melanoma) was over 100 µM and the GI50 (SK-MEL-28 melanoma) was over 100 µM. The TGI (SK-MEL-28 melanoma) was over 100 µM, the GI50 (SF-539 CNS) was over 100 µM and the TGI (SF-539 CNS) was over 100 µM. For the same compound, the GI50 (786-0 renal) was over 100 µM, the TGI (786-0 renal) was over 100 µM and the GI50 (BT-549 breast) was over 100 µM. It also gave a TGI (BT-549 breast) of over 100 µM, a GI50 (HOP-62 NSCLC) of 64.7 µM and a TGI (HOP-62 NSCLC) of over 100 µM. The GI50 (SNB-19 CNS) was over 100 µM, the TGI (SNB-19 CNS) was over 100 µM and the GI50 (MALME-3M melanoma) was over 100 µM. For the same compound, the TGI (MALME-3M melanoma) was over 100 µM, the GI50 (A498 renal) was over 100 µM and the TGI (A498 renal) was over 100 µM.
